Measurements published in patent EP4120837B1, “INHIBITORS OF CYTOKININ OXIDASE DERIVED FROM 2-(3-PHENYLUREIDO)BENZAMIDE, USE THEREOF AND PREPARATIONS CONTAINING THESE DERIVATIVES” (Univerzita Palackého v Olomouci, priority 2020, dated 2021).

These compounds were tested against T1, ZmCKX1 (Zea mays, UniProt Q9T0N8) (assay: ZmCKX1 inhibition, PMS/MTT assay). Conditions: not given.
T1 construct: made in house; host or cells: Yarrowia lipolytica
T1 sequence (Q9T0N8 19-534): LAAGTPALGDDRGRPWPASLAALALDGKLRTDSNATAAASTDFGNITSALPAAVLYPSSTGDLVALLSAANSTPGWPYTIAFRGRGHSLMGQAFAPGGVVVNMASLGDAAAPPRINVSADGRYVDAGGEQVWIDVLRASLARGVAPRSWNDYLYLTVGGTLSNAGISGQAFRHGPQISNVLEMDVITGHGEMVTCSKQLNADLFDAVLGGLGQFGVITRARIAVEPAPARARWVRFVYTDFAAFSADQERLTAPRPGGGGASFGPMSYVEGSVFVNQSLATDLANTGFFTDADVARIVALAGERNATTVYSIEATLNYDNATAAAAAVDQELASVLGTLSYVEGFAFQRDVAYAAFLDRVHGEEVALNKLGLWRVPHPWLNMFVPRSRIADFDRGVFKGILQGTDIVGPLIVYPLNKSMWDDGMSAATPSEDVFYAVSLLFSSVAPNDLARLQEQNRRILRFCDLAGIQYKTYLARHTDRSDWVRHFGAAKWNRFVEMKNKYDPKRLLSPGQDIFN
Assay type: biochemical, maize
Experimental: The IC50 (concentration of a substance that causes 50% inhibition of the enzyme activity) was measured by PMS/MTT assay [phenazine methosulphate/3-(4,5-dimethylthiazol-2-yl)-2,5-diphenyltetrazolium bromide]. The assay was performed in 96-well microtiter plates. Each well contained a reaction mixture with a final concentration of: 0.1 M KH2PO4, pH 7.4, 1 mM MTT, 0.2 mM PMS, tested substance in a concentration range of 0.1 nM - 1 µM and 10 µM N^6-isopentenyladenine (iP) as a substrate. To this reaction mixture 100 µL of medium containing the active enzyme ZmCKX1 was added. The enzyme was produced by the yeast Yarrowia lipolytica and isolated according to the protocol (Kopečný D. et al., 2005, […] 87:1011-1022). The plates were incubated for 30 min at 37 °C and the enzymatic reaction was stopped by the addition of 25 µL of 35% acetic acid. Then, the absorbance at 578 nm was measured on a spectrophotometer, and the absorbance of the sample without the substrate was substracted as a reference value. The IC50 value was determined from the concentration-dependent curves in GraphPad Prism software. The values shown in Table 1 are the average of at least two measurements each performed in three repetitions. […] The substance 3,5DCl-Ph-U is 1-(3,5-dichlorophenyl)-3-phenylurea, which we have been prepared to compare its inhibitory activity with the compounds presented in the present invention. Addition of the amide group to the unsubstituted phenyl ring of this substance gives the compound 2AD-3,5DC, which has 42-fold better inhibitory activity with the ZmCKX1 enzyme than 3,5DCl-Ph-U. F-INCYDE ((2-fluoro-9H-purin-6-yl)-(3-methoxyphenyl)amine), CPPU (1-(2-chloropyridin-4-yl)-3-phenylurea), and DCPPU (1-(2,6-dichloropyridin-4-yl)-3-phenylurea) are substances known in the prior art.
In the case of `CCNC(=O)c1ccc(Br)cc1NC(=O)Nc1cc(Cl)cc(Cl)c1` [compound 35, 4-Bromo-2-[3-(3,5-dichlorophenyl)ureido]-N-ethylbenzamide], the IC50 is reported as 0.003 µM. Work on `COc1ccc(C(N)=O)c(NC(=O)Nc2cc(Cl)cc(Br)c2)c1` [compound 25, 2-[3-(3-bromo-5-chlorophenyl)ureido]-4-methoxybenzamide] yielded an IC50 of 0.001 µM. `NC(=O)c1ccccc1NC(=O)Nc1cc(Br)cc(Br)c1` [compound 7, 2-[3-(3,5-dibromophenyl)ureido]benzamide] was tested, and the IC50 was 0.047 µM. In the case of `O=C(Nc1ccccc1)Nc1ccnc(Cl)c1` [CPPU, 1-(2-chloro-4-pyridyl)-3-phenylurea, reference compound], the IC50 is reported as 18 µM. `NC(=O)c1ccc(OC(F)(F)F)cc1NC(=O)Nc1cc(Cl)cc(Cl)c1` [compound 28, 2-[3-(3,5-Dichlorophenyl)ureido]-4-trifluoromethoxybenzamide] showed an IC50 of 0.001 µM. For `NCCNC(=O)c1ccc(Br)cc1NC(=O)Nc1cc(Cl)cc(Cl)c1` [compound 55, N-(2-Aminoethyl)-4-bromo-2-[3-(3,5-dichlorophenyl)ureido]benzamide], the IC50 was 0.01 µM. For `NC(=O)c1ccc(F)cc1NC(=O)Nc1cccc(Cl)c1` [compound 12, 2-[3-(3-chlorophenyl)ureido]-4-fluorobenzamide], the IC50 was 0.09 µM. `O=C(Nc1cc(Cl)cc(Cl)c1)Nc1cc(Br)ccc1C(=O)NCCO` [compound 48, 4-Bromo-2-[3-(3,5-dichlorophenyl)ureido]-N-(2-hydroxy-ethyl)benzamide] showed an IC50 of 0.005 µM. For `NC(=O)c1ccccc1NC(=O)Nc1cccc(Br)c1` [compound 2, 2-[3-(3-bromophenyl)ureido]benzamide], the IC50 was 0.34 µM. Compound `NNC(=O)c1ccc(Br)cc1NC(=O)Nc1cc(Cl)cc(Cl)c1` [compound 45, 1-(5-Bromo-2-hydrazinocarbonylphenyl)-3-(3,5-dichlorophenyl)-urea] has an IC50 of 0.02 µM. With `NC(=O)c1ccccc1NC(=O)Nc1cc(Cl)cc(OC(F)(F)F)c1` [compound 11, 2-[3-(3-Chloro-5-trifluoromethoxyphenyl)ureido]benzamide] the IC50 was 0.12 µM.

Same assay, conditions: 10 µM iP as substrate, pH 7.4, 30 min at 37 °C; average of at least two measurements; read-out: IC50 (µM) ZmCKX1
In the case of `NCCNC(=O)c1ccc(OC(F)(F)F)cc1NC(=O)Nc1cc(Cl)cc(Cl)c1` [compound 57, 2-[3-(3,5-dichlorophenyl)ureido]-4-trifluoromethoxy-N-(2-amino-ethyl)benzamide], the IC50 is reported as 0.008 µM. In the case of `COc1ccc(C(=O)NN)c(NC(=O)Nc2cc(Cl)cc(Cl)c2)c1` [compound 46, 1-(3,5-dichlorophenyl)-3-(2-hydrazinocarbonyl-5-methoxyphenyl)-urea], the IC50 is reported as 0.018 µM. `NC(=O)c1ccccc1NC(=O)Nc1cccc(F)c1` [compound 1, 2-[3-(3-fluorophenyl)ureido]benzamide] was tested, and the IC50 was 0.45 µM. In the case of `CNC(=O)c1ccc(Cl)cc1NC(=O)Nc1cc(Cl)cc(Cl)c1` [compound 31, 4-chloro-2-[3-(3,5-dichlorophenyl)ureido]-N-methylbenzamide], the IC50 is reported as 0.014 µM. `NNC(=O)c1ccccc1NC(=O)Nc1cc(Cl)cc(Cl)c1` [compound 44, 1-(3,5-dichlorophenyl)-3-(2-hydrazinocarbonylphenyl)-urea] showed an IC50 of 0.074 µM. For `O=C(Nc1cc(Cl)cc(Cl)c1)Nc1ccccc1C(=O)NCCO` [compound 47, 2-[3-(3,5-dichlorophenyl)ureido]-N-(2-hydroxy-ethyl)benzamide], the IC50 was 0.022 µM. `COc1ccc(C(N)=O)c(NC(=O)Nc2cccc(Cl)c2)c1` [compound 22, 2-[3-(3-chlorophenyl)ureido]-4-methoxybenzamide] gave an IC50 of 0.035 µM. In the case of `O=C(Nc1ccccc1)Nc1cc(Cl)cc(Cl)c1` [3,5DCl-Ph-U, 1-(3,5-dichlorophenyl)-3-phenylurea, reference compound], the IC50 is reported as 0.84 µM. `CNC(=O)c1ccccc1NC(=O)Nc1cc(Cl)cc(Cl)c1` [compound 29, 2-[3-(3,5-dichlorophenyl)ureido]-N-methylbenzamide] showed an IC50 of 0.03 µM. `COc1ccc(C(=O)NCCO)c(NC(=O)Nc2cc(Cl)cc(Cl)c2)c1` [compound 50, 2-[3-(3,5-dichlorophenyl)ureido]-4-methoxy-N-(2-hydroxyethyl)benzamide] was tested, and the IC50 was 0.003 µM. `CCNC(=O)c1ccc(OC(F)(F)F)cc1NC(=O)Nc1cc(F)cc(Cl)c1` [compound 38, 2-[3-(3-chloro-5-fluorophenyl)ureido]-4-trifluoromethoxy-N-ethylbenzamide] was tested, and the IC50 was 0.001 µM. Compound `CCCNC(=O)c1ccccc1NC(=O)Nc1cc(Cl)cc(Cl)c1` [compound 41, 2-[3-(3,5-dichlorophenyl)ureido]-N-propylbenzamide] has an IC50 of 0.03 µM. `CNC(=O)c1ccc(F)cc1NC(=O)Nc1cc(Cl)cc(Cl)c1` [compound 30, 2-[3-(3,5-dichlorophenyl)ureido]-4-fluoro-N-methylbenzamide] showed an IC50 of 0.021 µM. Compound `COc1ccc(C(=O)NCCO)c(NC(=O)Nc2cccc(F)c2)c1` [compound 49, 2-[3-(3-fluorophenyl)ureido]-4-methoxy-N-(2-hydroxy-ethyl)benzamide] has an IC50 of 0.04 µM. Work on `NC(=O)c1ccc(Cl)cc1NC(=O)Nc1cc(Cl)cc(Cl)c1` [compound 16, 4-Chloro-2-[3-(3,5-dichlorophenyl)ureido]benzamide] yielded an IC50 of 0.002 µM. Work on `O=C(Nc1cccc(Cl)c1)Nc1ccccc1C(=O)NCCCO` [compound 51, 2-[3-(3-chlorophenyl)ureido]-N-(3-hydroxy-propyl)benzamide] yielded an IC50 of 0.15 µM. Compound `NC(=O)c1ccc(OC(F)(F)F)cc1NC(=O)Nc1cccc(Cl)c1` [compound 26, 2-[3-(3-chlorophenyl)ureido]-4-trifluoromethoxybenzamide] has an IC50 of 0.009 µM. Work on `COc1cc(Cl)cc(NC(=O)Nc2cc(F)ccc2C(N)=O)c1` [compound 14, 2-[3-(3-chloro-5-methoxyphenyl)ureido]-4-fluorobenzamide] yielded an IC50 of 0.028 µM. `CCNC(=O)c1ccc(OC)cc1NC(=O)Nc1cccc(Cl)c1` [compound 36, 2-[3-(3-chlorophenyl)ureido]-4-methoxy-N-ethylbenzamide] showed an IC50 of 0.021 µM. `COc1cccc(Nc2nc(F)nc3[nH]cnc23)c1` [F-INCYDE, (2-fluoro-9H-purin-6-yl)-(3-methoxyphenyl)amine, reference compound] gave an IC50 of 1 µM. `NC(=O)c1ccccc1NC(=O)Nc1cc(F)cc(Cl)c1` [compound 8, 2-[3-(3-Chloro-5-fluorophenyl)ureido]benzamide] was tested, and the IC50 was 0.11 µM. In the case of `COc1cccc(NC(=O)Nc2ccccc2C(N)=O)c1` [compound 3], the IC50 is reported as 0.32 µM. `NC(=O)c1ccccc1NC(=O)Nc1cc(F)cc(F)c1` [compound 5, 2-[3-(3,5-difluorophenyl)ureido]benzamide] was tested, and the IC50 was 0.16 µM.

Same assay, conditions: read-out: IC50 (µM) ZmCKX1; 10 µM iP as substrate, pH 7.4, 30 min at 37 °C; average of at least two measurements
Compound `NC(=O)c1ccc(Cl)cc1NC(=O)Nc1cc(Cl)cc(Br)c1` [compound 17, 2-[3-(3-bromo-5-chlorophenyl)ureido]-4-chlorobenzamide] has an IC50 of 0.001 µM. Compound `CNC(=O)c1ccc(Br)cc1NC(=O)Nc1cc(Cl)cc(Cl)c1` [compound 32, 4-bromo-2-[3-(3,5-dichlorophenyl)ureido]-N-methylbenzamide] has an IC50 of 0.01 µM. In the case of `O=C(Nc1cccc(Cl)c1)Nc1cc(Br)ccc1C(=O)NCCCO` [compound 52, 4-bromo-2-[3-(3-chlorophenyl)ureido]-N-(3-hydroxy-propyl)benzamide], the IC50 is reported as 0.08 µM. For `NCCNC(=O)c1ccc(Br)cc1NC(=O)Nc1cccc(Cl)c1` [compound 54, 4-bromo-2-[3-(3-chlorophenyl)ureido]-N-(2-amino-ethyl)benzamide], the IC50 was 0.035 µM.
